Data on 11 molecules can be found in US7968572B2, “Nitrogen-containing heterocyclic compound and pharmaceutical application thereof” (Ono Pharmaceuticals Co., Ltd., priority 2005, dated 2011).

By IC50 is commonly meant the point on the concentration scale where inhibition reaches its midpoint. Read a high IC50 as a need for much substance.

The structures appear in SMILES notation.

Series [1] in a line: Evaluation of artificial lipid membrane binding using a Biacore S51 system. Particulars: for Binding Level (RU): compound 50 μM, DOPA liposomes on Sensor Chip L1, 37° C., PBS/5% DMSO (pH 7.4 or pH 6.0); for Judgment: phospholipidosis inducing activity judged from artificial lipid membrane binding. The protocol: Evaluation of Artificial Lipid Membrane Binding using a Biacore S51 (Registered Trademark) System
Using an aspirator, 10 mM of 1,2-dioleoyl-sn-glycero-3-phosphate monosodium salt (hereinafter abbreviated to DOPA) chloroform solution was evaporated to be dryness, and 0.6 mL of PBS/5% dimethyl sulfoxide (hereinafter abbreviated to DMSO) was added thereto. After carrying out thorough suspension by vortex, freezing and thawing were repeated for 5 times. Liposomes were prepared using a liposome preparation device (manufactured by Avestin Inc.) and two syringes and diluted to be 0.5 mM with PBS/5% DMSO just before the immobilization.
Each compound having a final concentration in PBS/5% DMSO of 50 μM was prepared by adding 38 μL of 1× PBS to 2 μL of 10 mM DMSO solution and further adding 360 μL of 1× PBS/5% DMSO and measured.
All of the following analyses were carried out using the Biacore S51 (registered trademark) system, and the measuring conditions were set up by Biacore S51 Control Software.
The measuring temperature was set to be 37° C., and PBS/5% DMSO (pH 7.4 or pH 6.0) was used as the buffer. Series S Sensor Chip L1 was used as the sensor chip. DOPA was immobilized on one of the measuring spots on the sensor surface, and the central spot was used as the reference.
Immobilization of the liposomes was carried out for about 3 minutes at a flow rate of 10 μL/minute, and then each compound was added thereto at a flow rate of 30 μL/minute to measure the interaction. The measuring conditions are as shown in the following.
Assay buffer: PBS/5% DMSO (pH 7.4 or pH 6.0)
Measuring temperature: 37° C.
Sensor chip: Series S Sensor Chip L1
Flow rate: 10 μL/minute at the time of liposome immobilization, 30 μL/minute at the time of interaction measurement
Regeneration: 20 mM CHAPS (3-[(3-cholamidopropyl)dimethylammonio]-1-propanesulfonate), an isopropanol/50 mM aqueous solution of sodium hydroxide=40/60 (volume ratio) mixed solution (60 seconds)
The data treatment was carried out in accordance with the method of Abdiche et al. (Analytical Biochemistry, 328, 233-243 (2004)) using Biacore S51 Evaluation Software.
After correcting infinitesimal error of the concentration of DMSO contained in the sample solution, the value of binding response (RU) obtained by subtracting the value of reference was divided by the sample molecular weight. Additionally, since the thus obtained value is proportional to the capturing amount of liposome, it was divided by the capturing amount at the time of the cycling and multiplied by 10^6 to be used as the correction value (correction value=1000000×RU (compound to be tested)/molecular weight (compound to be tested) RU (liposome)).
By adding propranolol, amiodarone, desipramine, imipramine and procaine as controls, it was confirmed that variation of the binding response is within about 10 to 15%.
Compounds having a binding response value after correction of 100 or more were judged positive.

The test system of series [2] is TNF-α production stimulated by lipopolysaccharide (LPS) in THP-1. The series can be described thus: Inhibitory activity against TNF-α production using human cell lines (LPS-stimulated THP-1). It counts as cell-based. The conditions noted are these: 1.5 h, THP-1 cells, LPS stimulation, 90 minutes at 37° C., TNF-α by ELISA. As for the experimental part:
Inhibitory Activity against TNF-α Production using Human Cell Lines
Using THP-1 which is a human monocytic cell line, the inhibitory effect of the compound of the present invention against TNF-α production stimulated by lipopolysaccharide (LPS) was studied.
Each 50 μL of lipopolysaccharide (LPS; 055:B5, Difco) prepared to a concentration of 40 ng/mL using RPMI-1640 medium containing 10% fetal calf serum (hereinafter abbreviated to RPMI-1640) and RPMI-1640 containing the compound of the present invention was added to a 96-well plate for cell culture. 100 μL of the cell suspension of THP-1 (Dainippon Pharmaceutical Co., Ltd, #06-202) prepared to a cell density of 2×10^6 cells/mL using RPMI-1640 was added and cultured for 90 minutes at 37° C. in an incubator (5% CO2, 95% air). After completion of the reaction, the culture medium supernatant was recovered and the amount of produced TNF-α was measured using an ELISA kit (Invitrogen, #850090192).
The inhibitory activity against TNF-α production, which is the effect of the compound of the present invention, was calculated as an inhibition rate (%) by the following equation: Inhibition rate (%)={(AC−AX)/(AC−AB)}×100
wherein AB is a measured value without LPS induction;
AC is a measured value with LPS induction in the absence of a test compound; and
AX is a measured value with LPS induction in the presence of a test compound.
Inhibition rate of compounds with each concentration was calculated, and a value indicating 50% inhibition (IC50) was determined from the inhibition curve.
For orientation: ELISA stands for enzyme-linked immunosorbent assay.

As for `CC(C)(O)c1nc(-c2ccc(=O)n(-c3c(F)cccc3F)c2)c(-c2ccc(F)cc2F)o1` [Example 7 (21), 1-(2,6-difluorophenyl)-5-[5-(2,4-difluorophenyl)-2-(1-hydroxy-1-methylethyl)-1,3-oxazol-4-yl]-2(1H)-pyridinone], in series [1], the “Binding Level (RU)” value is 18.3 RU and the Judgment entry is given as “Negative”. Besides, in series [2], the IC50 amounted to 1.7 nM.

Consider `O=c1ccc(-c2nc(C(O)(CO)CO)oc2-c2ccc(F)cc2F)cn1-c1c(F)cccc1F` [Example 7 (39), 1-(2,6-difluorophenyl)-5-{5-(2,4-difluorophenyl)-2-[1,2-dihydroxy-1-(hydroxymethyl)ethyl]-1,3-oxazol-4-yl}-2(1H)-pyridinone], for which, in series [1], the “Binding Level (RU)” value was found to be 11.1 RU and the Judgment result is listed as “Negative”. The concentration for half-maximal inhibition (IC50) in series [2] was 1.8 nM.

On to `C[C@@](O)(CO)c1nc(-c2ccc(=O)n(-c3c(F)cccc3F)c2)c(-c2ccc(F)cc2F)o1` [Example 167 (1), 1-(2,6-difluorophenyl)-5-{5-(2,4-difluorophenyl)-2-[(1R)-1,2-dihydroxy-1-methylethyl]-1,3-oxazol-4-yl}-2(1H)-pyridinone], for which, in series [1], the “Binding Level (RU)” value is given as 19.6 RU and the Judgment result was “Negative”. This molecule showed a half-maximal inhibitory concentration (IC50) in series [2] of 0.8 nM.

On to `C[C@](O)(CO)c1nc(-c2ccc(=O)n(-c3c(F)cccc3F)c2)c(-c2ccc(F)cc2F)o1` [Example 167 (2), 1-(2,6-difluorophenyl)-5-{5-(2,4-difluorophenyl)-2-[(1S)-1,2-dihydroxy-1-methylethyl]-1,3-oxazol-4-yl}-2(1H)-pyridinone], for which, in series [1], the “Binding Level (RU)” value is 22.2 RU and the Judgment result is given as “Negative”. The IC50 in series [2] amounted to 1.1 nM.

With `CC(C)(O)[C@H](O)c1nc(-c2ccc(F)cc2F)c(-c2ccc(=O)n(-c3c(F)cccc3F)c2)o1` [Example 206, 1-(2,6-difluorophenyl)-5-{4-(2,4-difluorophenyl)-2-[(1S)-1,2-dihydroxy-2-methylpropyl]-1,3-oxazol-5-yl}-2(1H)-pyridinone], in series [1], the “Binding Level (RU)” value is given as 14.7 RU and the Judgment result is “Negative”. In series [2], the IC50 came out at 0.9 nM.

As for `CC(C)(O)[C@@H](O)c1nc(-c2ccc(F)cc2F)c(-c2ccc(=O)n(-c3c(F)cccc3F)c2)o1` [Example 207, 1-(2,6-difluorophenyl)-5-{4-(2,4-difluorophenyl)-2-[(1R)-1,2-dihydroxy-2-methylpropyl]-1,3-oxazol-5-yl}-2(1H)-pyridinone], in series [1], the “Binding Level (RU)” value turned out to be 12.8 RU and the Judgment result is given as “Negative”. In series [2], this molecule yielded a 50% inhibitory concentration (IC50) of 0.6 nM.

As for `C[C@@](O)(CO)c1nc(-c2ccc(F)cc2F)c(-c2ccc(=O)n(-c3c(F)cccc3F)c2)o1` [Example 211, 1-(2,6-difluorophenyl)-5-{4-(2,4-difluorophenyl)-2-[(1R)-1,2-dihydroxy-1-methylethyl]-1,3-oxazol-5-yl}-2(1H)-pyridinone], in series [1], the “Binding Level (RU)” value is 11.1 RU and the Judgment result is listed as “Negative”. In series [2], this molecule gave an IC50 of 0.6 nM.

Take `CC(C)(O)Cc1nc(-c2ccc(F)cc2F)c(-c2ccc(=O)n(-c3c(F)cccc3F)c2)o1` [Example 220, 1-(2,6-difluorophenyl)-5-[4-(2,4-difluorophenyl)-2-(2-hydroxy-2-methylpropyl)-1,3-oxazol-5-yl]-2(1H)-pyridinone]: in series [1], the “Binding Level (RU)” value is listed as 15.5 RU and the Judgment entry is listed as “Negative”. The half-maximal inhibitory concentration (IC50) in series [2] is 1.4 nM.

As to `O=c1ccc(-c2oc(C(O)(CO)CO)nc2-c2ccc(F)cc2F)cn1-c1c(F)cccc1F` [Example 223, 1-(2,6-difluorophenyl)-5-{4-(2,4-difluorophenyl)-2-[1,2-dihydroxy-1-(hydroxymethyl)ethyl]-1,3-oxazol-5-yl}-2(1H)-pyridinone], in series [1], the “Binding Level (RU)” value is 8.7 RU and the Judgment entry is “Negative”. The molecule also yielded a concentration for half-maximal inhibition (IC50) in series [2] of 2.1 nM.

Consider `CC(C)(O)[C@@H](O)c1nc(-c2ccc(=O)n(-c3c(F)cccc3F)c2)c(-c2ccc(F)cc2F)o1` [Example 227 (1), 1-(2,6-difluorophenyl)-5-{5-(2,4-difluorophenyl)-2-[(1R)-1,2-dihydroxy-2-methylpropyl]-1,3-oxazol-4-yl}-2(1H)-pyridinone], for which, in series [1], the “Binding Level (RU)” value amounted to 21.0 RU and the Judgment result was “Negative”. This molecule gave an IC50 in series [2] of 0.7 nM.

On to `CC(C)(O)[C@H](O)c1nc(-c2ccc(=O)n(-c3c(F)cccc3F)c2)c(-c2ccc(F)cc2F)o1` [Example 227, 1-(2,6-difluorophenyl)-5-{5-(2,4-difluorophenyl)-2-[(1S)-1,2-dihydroxy-2-methylpropyl]-1,3-oxazol-4-yl}-2(1H)-pyridinone], for which, in series [1], the “Binding Level (RU)” value turned out to be 22.5 RU and the Judgment result is given as “Negative”. In series [2], the IC50 turned out to be 1.7 nM.
